Patent US7435407B2, “Inhibition of olfactory neurosensory function to treat eating disorders and obesity” (Compellis Pharmaceuticals, priority 2002, dated 2008)

Columns and labels:
[1] = Food intake in food-deprived rats after intranasal administration; format: in vivo, rat
Protocol: Male Sprague-Dawley rats, 150-175 g at the start of the experiments (Charles River Laboratories, Wilmington, Mass.) were housed individually in suspended wire mesh cages; maintained on a reversed-lighting schedule (lights-on at 7 p.m., lights-off at 7 a.m.); and acclimated to our climate controlled animal facility and to the test diets for 7 days prior to experimentation. As the experiments in food-deprived rats were performed during the dark cycle, a dull red light (25 watt) was used to help with placement and weighing of the food jars.
Rats had ad libitum access to tap water and food (Rodent Laboratory Chow No. 5001-pellet form, Purina) on non-testing days. A mush diet, used for experiments on food-deprived animals, and composed of equal parts by weight of ground rodent chow (Purina, # 5001-meal form) and a 4% nutrient agar solution (Teklad Diets) was presented to the animals in glass jars. […]
One hour after administration, pre-weighed food jars were introduced into the cage and a sheet of clean white paper placed under each cage to catch any spillage. The amount of food consumed after 1, 2 and 4 hours was determined to the nearest 0.01 g. […]
One hour later pre-weighed food jars were introduced into the cage and a sheet of clean white paper placed under each cage to catch any spillage. The amount of food consumed after 1, 2 and 4 hours was determined to the nearest 0.01 g.

[2] = Rota-Rod test after intranasal administration; format: in vivo, rat; settings: intranasal 1 mg/kg; 6 rpm; sessions 0-60 minutes after administration
Protocol: Two groups of rats (12 rats each) were tested. Each rat went through 8 sessions on the rota-rod: 3 sessions before drug administration (pretest, time −45, −30, and −15 minutes); 1 session immediately after the drug was administered (time 0); and 4 sessions after drug administration (time 15, 30, 45, and 60 minutes).
A speed of 6 rpm was used, and diltiazem was administered, as described above, intra-nasally at 1 mg/kg.

olfactory epithelium = assay: Electro-olfactory (EOG) recording of olfactory epithelium response to odorant Citralva; format: in vivo, mice; settings: 10 μl/nostril intranasal, recording 10 min later
Protocol: A detailed description of the method employed is provided, e.g., by Wong et al. (Neuron 2000: 27: 487-97), and Scott (J Neurosci 2000; 15:4721-31). Briefly, six week old mice were used and each mouse was given 10 μl/nostril of Diltiazem at 10 μM, 100 μM, or saline. It was returned to home cage and euthanized 10 min later for electro-olfactory (EOG) recording. The odorant was Ciltralva at 5 μM. Also included was a “no treatment” control.

## COc1ccc([C@@H]2Sc3ccccc3N(CCN(C)C)C(=O)[C@@H]2OC(C)=O)cc1 [diltiazem, Diltiazem]
[1]; dosing study, intranasal 20 μL/nostril, 0.02, 0.2 and 2 mg/kg, strong trend (FIG. 2)
  optimal dose (concentration of solution) for reduction of food intake: 0.2-20 % w/v
[1]; intranasal 20 μL/nostril, 0.02-2 mg/kg, food given 1 hour after administration, consumed after 1, 2 and 4 hours, versus placebo (FIG. 1)
  amount of food consumed: consumed significantly less food
[2]
  activity (balance and agility) in Rota-Rod test, drug versus vehicle group: no indications of a difference in activity
Olfactory epithelium; 10 μM
  effect on olfactory nerve activity (EOG response to Citralva 5 μM): little effect
Olfactory epithelium; 100 μM
  effect on olfactory nerve response (EOG response to Citralva 5 μM): blocked
